Test results: ChEMBL document CHEMBL1909046, “DrugMatrix in vitro pharmacology data”

Assays:
[1] = DRUGMATRIX: ATPase, Na+/K+ enzyme inhibition (substrate: ATP); assay type: tissue-based, Sus scrofa, Heart; conditions: Not Active = under 50% inhibition at 10 µM
Melanocortin receptor 5 = Melanocortin receptor 5 (Homo sapiens, UniProt P33032); assay type: cell membranes, HEK293, Membrane; conditions: hek293; note: in other assays of this panel Not Active means under 50% inhibition at 10 µM
[2] = biological target: T1, Muscarinic acetylcholine receptor M5 (Homo sapiens, UniProt P08912); assay type: cell membranes, Membrane; conditions: cho-k1; note: in other assays of this panel Not Active means under 50% inhibition at 10 µM
T1 sequence (P08912 whole entry): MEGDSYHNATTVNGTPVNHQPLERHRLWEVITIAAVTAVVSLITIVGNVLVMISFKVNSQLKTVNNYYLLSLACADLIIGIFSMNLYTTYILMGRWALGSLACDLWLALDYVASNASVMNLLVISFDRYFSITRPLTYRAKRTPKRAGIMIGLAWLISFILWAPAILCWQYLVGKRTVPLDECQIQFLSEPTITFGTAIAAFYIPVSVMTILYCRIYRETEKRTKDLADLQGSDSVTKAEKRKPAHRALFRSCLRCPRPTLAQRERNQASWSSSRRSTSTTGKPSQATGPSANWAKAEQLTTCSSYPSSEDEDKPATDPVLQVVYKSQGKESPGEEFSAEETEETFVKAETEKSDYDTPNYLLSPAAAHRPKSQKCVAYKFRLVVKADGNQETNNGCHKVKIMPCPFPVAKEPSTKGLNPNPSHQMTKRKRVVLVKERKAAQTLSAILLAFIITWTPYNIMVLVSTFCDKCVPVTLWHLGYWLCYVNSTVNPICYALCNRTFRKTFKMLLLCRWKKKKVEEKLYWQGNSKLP

[3] = biological target: T2, Neuropeptide Y receptor type 1 (Homo sapiens, UniProt P25929); assay type: cell membranes, Membrane; conditions: sk-n-mc; note: in other assays of this panel Not Active means under 50% inhibition at 10 µM
T2 sequence (P25929 whole entry): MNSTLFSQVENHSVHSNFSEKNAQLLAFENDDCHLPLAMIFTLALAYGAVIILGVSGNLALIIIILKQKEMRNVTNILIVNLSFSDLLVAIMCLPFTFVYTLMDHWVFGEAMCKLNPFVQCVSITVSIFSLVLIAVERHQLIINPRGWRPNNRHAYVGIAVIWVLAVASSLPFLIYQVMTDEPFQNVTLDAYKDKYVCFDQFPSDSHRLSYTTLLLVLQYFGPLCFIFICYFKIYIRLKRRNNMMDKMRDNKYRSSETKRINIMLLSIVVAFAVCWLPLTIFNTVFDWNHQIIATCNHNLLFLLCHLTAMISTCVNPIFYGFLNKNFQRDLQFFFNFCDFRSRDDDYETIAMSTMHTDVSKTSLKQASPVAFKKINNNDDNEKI

[4] = biological target: Delta-type opioid receptor (Homo sapiens, UniProt P41143); assay type: cell membranes, HEK293, Membrane; conditions: hek293; note: in other assays of this panel Not Active means under 50% inhibition at 10 µM
[5] = biological target: Mitogen-activated protein kinase 3 (Homo sapiens, UniProt P27361); test: DRUGMATRIX: Protein Serine/Threonine Kinase, ERK1 enzyme inhibition (substrate: Myelin Basic Protein); parameters: species or system Escherichia coli; conditions: Not Active = under 50% inhibition at 10 µM
[6] = biological target: T3, Receptor-type tyrosine-protein phosphatase C (Homo sapiens, UniProt P08575); parameters: species or system Escherichia coli
T3 sequence (P08575 whole entry): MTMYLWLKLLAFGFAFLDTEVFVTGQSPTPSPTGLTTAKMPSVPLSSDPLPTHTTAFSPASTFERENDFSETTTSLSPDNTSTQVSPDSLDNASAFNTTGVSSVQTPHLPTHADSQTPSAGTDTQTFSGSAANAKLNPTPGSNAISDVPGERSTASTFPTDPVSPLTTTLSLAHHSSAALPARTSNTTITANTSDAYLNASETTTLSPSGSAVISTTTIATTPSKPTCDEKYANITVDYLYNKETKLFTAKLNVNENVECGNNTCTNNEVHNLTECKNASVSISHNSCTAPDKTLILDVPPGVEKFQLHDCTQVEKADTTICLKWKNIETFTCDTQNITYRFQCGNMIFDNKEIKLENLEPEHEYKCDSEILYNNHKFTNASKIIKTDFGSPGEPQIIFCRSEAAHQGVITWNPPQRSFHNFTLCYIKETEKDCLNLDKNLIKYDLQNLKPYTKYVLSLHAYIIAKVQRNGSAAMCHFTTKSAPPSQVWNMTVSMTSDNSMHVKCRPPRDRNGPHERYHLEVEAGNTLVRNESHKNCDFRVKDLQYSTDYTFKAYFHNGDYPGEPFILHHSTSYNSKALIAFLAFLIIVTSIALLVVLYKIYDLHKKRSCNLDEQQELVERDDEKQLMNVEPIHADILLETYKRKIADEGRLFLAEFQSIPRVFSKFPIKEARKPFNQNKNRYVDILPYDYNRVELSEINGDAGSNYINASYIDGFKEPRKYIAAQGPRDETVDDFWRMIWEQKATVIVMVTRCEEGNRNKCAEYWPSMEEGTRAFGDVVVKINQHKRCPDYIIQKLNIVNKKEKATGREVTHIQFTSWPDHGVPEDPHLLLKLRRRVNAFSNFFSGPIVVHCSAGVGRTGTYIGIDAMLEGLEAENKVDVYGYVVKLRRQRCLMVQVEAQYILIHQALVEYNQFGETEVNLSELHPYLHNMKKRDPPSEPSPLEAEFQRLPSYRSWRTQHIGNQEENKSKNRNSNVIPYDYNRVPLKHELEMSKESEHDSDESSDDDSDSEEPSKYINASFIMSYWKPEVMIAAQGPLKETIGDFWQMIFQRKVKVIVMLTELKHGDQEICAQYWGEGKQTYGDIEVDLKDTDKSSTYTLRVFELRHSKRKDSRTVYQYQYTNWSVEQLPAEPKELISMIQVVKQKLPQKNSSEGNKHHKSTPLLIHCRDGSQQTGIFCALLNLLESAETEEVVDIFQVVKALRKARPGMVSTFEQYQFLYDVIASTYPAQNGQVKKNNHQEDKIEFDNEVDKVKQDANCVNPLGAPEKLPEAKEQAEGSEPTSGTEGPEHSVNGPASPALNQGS

Adenosine receptor A3 = biological target: T4, Adenosine receptor A3 (Homo sapiens, UniProt P0DMS8); assay type: cell membranes, CHO-K1, Membrane
T4 sequence (P0DMS8 whole entry): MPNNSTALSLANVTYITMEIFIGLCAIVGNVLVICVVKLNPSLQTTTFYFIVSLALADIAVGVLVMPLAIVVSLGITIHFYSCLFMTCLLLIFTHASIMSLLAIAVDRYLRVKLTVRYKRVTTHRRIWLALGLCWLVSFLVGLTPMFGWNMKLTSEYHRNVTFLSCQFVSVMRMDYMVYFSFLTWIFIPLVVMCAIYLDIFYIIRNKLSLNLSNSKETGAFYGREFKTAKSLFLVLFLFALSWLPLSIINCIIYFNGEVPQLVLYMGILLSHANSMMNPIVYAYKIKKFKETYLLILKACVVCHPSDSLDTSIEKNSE

Chain of Melanocortin receptor 5 (P33032 whole entry): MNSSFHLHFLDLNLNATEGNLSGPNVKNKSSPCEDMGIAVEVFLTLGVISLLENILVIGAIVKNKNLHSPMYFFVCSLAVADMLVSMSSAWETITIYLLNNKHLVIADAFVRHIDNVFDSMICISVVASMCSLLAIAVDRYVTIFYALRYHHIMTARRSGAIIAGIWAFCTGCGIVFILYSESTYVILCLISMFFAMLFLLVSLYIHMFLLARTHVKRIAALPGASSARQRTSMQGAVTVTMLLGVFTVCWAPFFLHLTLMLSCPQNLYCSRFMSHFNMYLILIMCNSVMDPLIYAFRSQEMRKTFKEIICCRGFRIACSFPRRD
Chain of Mitogen-activated protein kinase 3 (P27361 whole entry): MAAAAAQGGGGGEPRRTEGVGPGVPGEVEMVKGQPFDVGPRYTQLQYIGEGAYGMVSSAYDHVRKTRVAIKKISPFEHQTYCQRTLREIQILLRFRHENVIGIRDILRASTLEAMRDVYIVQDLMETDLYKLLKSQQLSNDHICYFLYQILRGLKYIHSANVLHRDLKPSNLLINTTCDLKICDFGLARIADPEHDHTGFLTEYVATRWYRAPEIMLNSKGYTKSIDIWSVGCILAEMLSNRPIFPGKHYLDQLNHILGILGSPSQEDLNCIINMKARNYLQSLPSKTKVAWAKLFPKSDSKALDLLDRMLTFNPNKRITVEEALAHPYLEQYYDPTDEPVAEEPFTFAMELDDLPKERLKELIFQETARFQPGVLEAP
Chain of Delta-type opioid receptor (P41143 whole entry): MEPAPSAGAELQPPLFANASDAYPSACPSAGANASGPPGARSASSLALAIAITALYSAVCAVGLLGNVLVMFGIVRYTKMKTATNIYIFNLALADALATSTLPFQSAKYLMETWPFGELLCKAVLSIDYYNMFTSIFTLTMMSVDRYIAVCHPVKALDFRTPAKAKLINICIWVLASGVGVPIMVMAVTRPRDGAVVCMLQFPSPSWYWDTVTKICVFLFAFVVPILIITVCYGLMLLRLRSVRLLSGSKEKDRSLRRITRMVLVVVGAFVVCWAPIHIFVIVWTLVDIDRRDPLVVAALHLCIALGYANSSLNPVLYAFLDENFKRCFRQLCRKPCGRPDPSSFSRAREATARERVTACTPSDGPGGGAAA

SMILES	IC50 [1]	Ki [1]	IC50 (Melanocortin receptor 5)	IC50 [2]	IC50 [3]	IC50 [4]	IC50 [5]	IC50 [6]	IC50 (Adenosine receptor A3; cho-k1)	IC50 (Adenosine receptor A3; read-out: IC50) [µM]	Ki (Adenosine receptor A3; read-out: Ki) [µM]
CCCCCC[C@H]1C(=O)O[C@H](C)[C@H](NC(=O)c2cccc(NC=O)c2O)C(=O)O[C@@H](C)[C@@H]1OC(=O)CC(C)C [ANTIMYCIN A]	Not Active	Not Active	Not Active	Not Active	Not Active	Not Active	Not Active	Not Active	Not Active	–	–
C[C@@H]1CC[C@H]2[C@@H](C)C(=O)O[C@@H]3O[C@@]4(C)CC[C@@H]1[C@]32OO4 [ARTEMISININ]	Not Active	Not Active	Not Active	Not Active	Not Active	Not Active	Not Active	Not Active	Not Active	–	–
CO[C@H]1[C@@H](O)[C@H](N)[C@@H](O[C@H]2O[C@H]([C@H](C)N)CC[C@H]2N)[C@H](O)[C@@H]1N(C)C(=O)CN [ASTROMICIN]	Not Active	Not Active	Not Active	Not Active	Not Active	Not Active	Not Active	Not Active	Not Active	–	–
[N-]=[N+]=CC(=O)OC[C@H](N)C(=O)O [AZASERINE]	Not Active	Not Active	Not Active	Not Active	Not Active	Not Active	Not Active	Not Active	Not Active	–	–
CC[C@H]1OC(=O)[C@H](C)[C@@H](O[C@H]2C[C@@](C)(OC)[C@@H](O)[C@H](C)O2)[C@H](C)[C@@H](O[C@@H]2O[C@H](C)C[C@H](N(C)C)[C@H]2O)[C@](C)(O)C[C@@H](C)CN(C)[C@H](C)[C@@H](O)[C@]1(C)O [AZITHROMYCIN]	Not Active	Not Active	Not Active	Not Active	Not Active	Not Active	Not Active	Not Active	Not Active	–	–
CC(C)(C)c1ccc(S(=O)(=O)/C=C/C#N)cc1 [BAY-11-7085]	Not Active	Not Active	Not Active	Not Active	Not Active	Not Active	Not Active	Not Active	Not Active	–	–
CCc1oc2ccccc2c1C(=O)c1cc(Br)c(O)c(Br)c1 [BENZBROMARONE]	Not Active	Not Active	Not Active	Not Active	Not Active	Not Active	Not Active	Not Active	–	5.22	2.95
Cc1c(N(C)CS(=O)(=O)[O-])c(=O)n(-c2ccccc2)n1C.[Na+] [DIPYRONE SODIUM]	Not Active	Not Active	Not Active	Not Active	Not Active	Not Active	–	Not Active	Not Active	–	–
Cc1cnc(C(=O)NCCc2ccc(S(=O)(=O)NC(=O)NC3CCCCC3)cc2)cn1 [GLIPIZIDE]	Not Active	Not Active	Not Active	Not Active	Not Active	Not Active	–	–	Not Active	–	–
